In ChEMBL document CHEMBL1201862, “PubChem BioAssay data set” (2004):
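How tested: cells in 96-well plates exposed to compound for 48 hours at five concentrations. GI50 is the concentration that inhibits growth by half.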 Calls of active or inactive are those of the source. Rule as the data show it: active = GI50 up to about 1.1 µM and inactive = higher.

Key:
Experiment in all cases: NCI anticancer screen, dose series, 48 h
A549 = system: A549
COLO 205 = system: COLO 205
HOP-62 = system: HOP-62
M14 = system: M14
MOLT-4 = system: MOLT-4
NCI-H226 = system: NCI-H226
NCI-H460 = system: NCI-H460
NCI/ADR-RES = system: NCI/ADR-RES
SF-539 = system: SF-539
SK-MEL-2 = system: SK-MEL-2
SK-MEL-5 = system: SK-MEL-5
SW-620 = system: SW-620
UACC-257 = system: UACC-257
UACC-62 = system: UACC-62
SNB-19 = system: SNB-19

SMILES | GI50 (A549) | GI50 (COLO 205) | GI50 (HOP-62) | GI50 (M14) | GI50 (MOLT-4) | GI50 (NCI-H226) | GI50 (NCI-H460) | GI50 (NCI/ADR-RES) | GI50 (SF-539) | GI50 (SK-MEL-2) | GI50 (SK-MEL-5) | GI50 (SW-620) | GI50 (UACC-257) | GI50 (UACC-62) | GI50 (SNB-19)
O=C(C[n+]1ccccc1)N/N=C(\C(=O)NC1=C(Cl)C(=O)c2ccccc2C1=O)c1c(O)c2ccc(O)cc2oc1=O | 3.03 µM (inactive) | 3.05 µM (inactive) | 10.4 µM (inactive) | 3.5 µM (inactive) | 11 µM (inactive) | 5.56 µM (inactive) | 2.52 µM (inactive) | 4.08 µM (inactive) | 4.28 µM (inactive) | 2.31 µM (inactive) | 1.06 µM (active) | 3.89 µM (inactive) | 3.03 µM (inactive) | 1.84 µM (inactive) | 
O=C1C(Cl)=C(N2C(=O)CCCC2=O)C(=O)c2ccccc21 | 22.1 µM (inactive) | 6.37 µM (inactive) | > 100 µM (inactive) | 19.5 µM (inactive) | 17.9 µM (inactive) | 59.4 µM (inactive) | 14.6 µM (inactive) | 22.6 µM (inactive) | 18.5 µM (inactive) | 22.5 µM (inactive) | 16.6 µM (inactive) | 20.9 µM (inactive) | 19.1 µM (inactive) | 19.3 µM (inactive) | > 10 µM (inactive)
O=CNNC(=O)CSc1nc2ccc(I)cc2c(=O)n1Cc1ccccc1 | 37.4 µM (inactive) | 17.9 µM (inactive) | 37.1 µM (inactive) | 31.6 µM (inactive) | 0.361 µM (active) | 49.3 µM (inactive) | 20 µM (inactive) | 31.3 µM (inactive) | 34.6 µM (inactive) | 20.9 µM (inactive) | 18.6 µM (inactive) | 44.8 µM (inactive) | 22.9 µM (inactive) | 20.3 µM (inactive) | 46.6 µM (inactive)
COc1ccc2oc(=O)c(-c3cc4c(c(C)n3)c(=O)oc3ccc(OC)cc34)cc2c1 | > 100 µM (inactive) | > 100 µM (inactive) | 30.4 µM (inactive) | > 100 µM (inactive) | > 100 µM (inactive) | > 100 µM (inactive) | > 100 µM (inactive) | > 100 µM (inactive) | 93.5 µM (inactive) | > 100 µM (inactive) | > 100 µM (inactive) | > 100 µM (inactive) | > 100 µM (inactive) | 35.8 µM (inactive) | 25.5 µM (inactive)
COCCNc1cncc(C(N)=O)c1 | > 100 µM (inactive) | > 100 µM (inactive) | > 100 µM (inactive) | > 100 µM (inactive) | > 100 µM (inactive) | > 100 µM (inactive) | > 100 µM (inactive) | > 100 µM (inactive) | > 100 µM (inactive) | > 100 µM (inactive) | > 100 µM (inactive) | > 100 µM (inactive) | > 100 µM (inactive) | > 100 µM (inactive) | > 100 µM (inactive)
COc1ccc(NC(C)=O)c(C(=O)CCNC(C)=O)c1 | > 100 µM (inactive) | > 100 µM (inactive) |  | > 100 µM (inactive) | > 100 µM (inactive) | > 100 µM (inactive) | > 100 µM (inactive) | > 100 µM (inactive) | > 100 µM (inactive) | > 100 µM (inactive) | > 100 µM (inactive) | > 100 µM (inactive) | > 100 µM (inactive) | > 100 µM (inactive) | > 100 µM (inactive)
C#C[C@]1(O)CC[C@H]2[C@@H]3CCC4=C/C(=N/NC(=O)c5cccc6cc7ccccc7nc56)CC[C@@H]4[C@H]3CC[C@@]21CC | 47 µM (inactive) | 70.5 µM (inactive) | 67.9 µM (inactive) | 84.7 µM (inactive) | 0.0942 µM (active) | > 100 µM (inactive) | 36.3 µM (inactive) | 58.9 µM (inactive) | 33.9 µM (inactive) | > 100 µM (inactive) | 21.9 µM (inactive) | > 100 µM (inactive) | > 100 µM (inactive) | 95.5 µM (inactive) | > 100 µM (inactive)
